In data set [1] the test system is RAW264.7. Kind of data set: Cytotoxicity against Mus musculus (mouse) RAW264.7 cells assessed as reduction in viable cells at 250 uM after 17 to 20 hr by MTT assay. It counts as cell-based. The note with it: raw264.7, 250 µM. Background: Formazan colour is commonly taken as a measure of viable cells.
The subject of data set [2] is RAW264.7. Put plainly: Cytotoxicity against Mus musculus (mouse) RAW264.7 cells assessed as reduction in viable cells at 50 uM after 17 to 20 hr by MTT assay. The conditions noted are these: raw264.7, 50 µM. It counts as cell-based.
The subject of data set [3] is RAW264.7. Put plainly: Cytotoxicity against Mus musculus (mouse) RAW264.7 cells assessed as reduction in viable cells at 25 uM after 17 to 20 hr by MTT assay. Format: cell-based. The conditions noted are these: raw264.7, 25 µM.
Data set [4] has as its system RAW264.7. Put plainly: Anti-inflammatory activity in Mus musculus (mouse) RAW264.7 cells assessed as inhibition of IFN-gamma/LPS-induced NO production after 17 to 20 hr by Griess assay. The conditions noted are these: for pIC50: read-out: IC50; for IC50: read-out: pIC50 (converted). It counts as functional, cell-based. A general note: Griess reagent forms a coloured azo dye with nitrite.

Molecules are shown by their SMILES. pIC50: −log10 of the molar value.

`COc1cccc(/C=C/C(=O)c2ccc(C)o2)c1OC`: the Activity entry in the data set on RAW264.7 [1], in the data set on RAW264.7 [2] and in the data set with RAW264.7 [3] was “Toxic” each time. For the same compound, in the data set on RAW264.7 [4], the pIC50 is 5.65. The IC50 in the data set with RAW264.7 [4] was 2.24 µM.
Consider `Cc1cc(C(=O)/C=C/c2ccc(O)cc2)c(C)o1`, for which, in the data set on RAW264.7 [4], the negative logarithm of the IC50 (pIC50) is 4.87.
With `Cc1ccc(C(=O)/C=C/c2ccc(O)cc2)o1`, in the data set with RAW264.7 [4], the pIC50 was 4.79 and the IC50 was 16.2 µM.
On the same counts, the results for `Cc1ccc(C(=O)/C=C/c2ccc(F)cc2)o1` are 4.77 and 17 µM.
The corresponding values for `COc1cccc(OC)c1/C=C/C(=O)c1ccc(C)o1` are 5.19 and 6.46 µM.
The corresponding values for `O=C(/C=C/c1cccc(O)c1)c1ccco1` are 4.61 and 24.5 µM.
Take `COc1ccc(OC)c(/C=C/C(=O)c2ccco2)c1`: in the data set on RAW264.7 [4], the pIC50 is 4.80 and the IC50 was 15.8 µM.
In the case of `Cc1ccc(C(=O)/C=C/c2cccc(O)c2)o1`, in the data set on RAW264.7 [4], the pIC50 was 5.03 and the IC50 is 9.33 µM.
For `O=C(/C=C/c1ccc(O)cc1)c1ccncc1`, in the data set with RAW264.7 [4], the pIC50 was at most 4.30.
On the same count and under the same terms, as for `O=C(/C=C/c1cccc(O)c1)c1ccc(Cl)s1`, the figure is 4.48.
Still for that read-out and setting: next, `O=C(/C=C/c1ccccc1O)c1cccs1`: 4.79.
In the case of `Cc1ccc(C(=O)/C=C/c2cccc(F)c2)o1`, in the data set on RAW264.7 [4], the pIC50 is 4.79 and the IC50 was 16.2 µM.
Consider `COC(=O)[C@@H](N)CCCNC(=N)N[N+](=O)[O-]` [L-NAME], for which the pIC50 in the data set with RAW264.7 [4] was 4.63.
`COc1ccc(/C=C/C(=O)c2ccc(C)o2)c(F)c1`: in the data set with RAW264.7 [4], the pIC50 is 5.27 and the IC50 was 12.3 µM.
On the same counts, the results for `Cc1ccc(C(=O)/C=C/c2ccccc2O)o1` are 5.23 and 6.92 µM.
Turning to `COc1ccc(OC)c(/C=C/C(=O)c2ccc(C)o2)c1`, in the data set on RAW264.7 [4], the pIC50 was 5.60 and the IC50 was 2.51 µM.
With `Cc1ccc(C(=O)/C=C/c2ccccc2OCC(=O)O)o1`, the pIC50 in the data set with RAW264.7 [4] is at most 4.30.
Consider `COc1ccc(/C=C/C(=O)c2ccc(C)o2)c(OC)c1OC`, for which, in the data set on RAW264.7 [4], the pIC50 was 5.35 and the IC50 is 4.47 µM.
Regarding `Cc1cc(C(=O)/C=C/c2ccccc2O)c(C)o1`, the pIC50 in the data set with RAW264.7 [4] is 4.86.
As for `O=C(/C=C/c1ccccc1O)c1ccc(Cl)s1`, in the data set on RAW264.7 [4], the pIC50 was 4.63.
Regarding `Cc1cc(C(=O)/C=C/c2cccc(O)c2)c(C)o1`, the pIC50 with RAW264.7 [4] is 5.10.
Take `Cc1ccc(C(=O)/C=C/c2cccc(Cl)c2)o1`: in the data set with RAW264.7 [4], the pIC50 is 5.11 and the IC50 is 7.76 µM.
As to `COc1cc(OC)c(/C=C/C(=O)c2ccc(C)o2)c(OC)c1`, in the data set with RAW264.7 [4], the negative logarithm of the IC50 (pIC50) is 5.25 and the IC50 was 5.62 µM.
`Cc1ccc(C(=O)/C=C/c2ccccc2F)o1`: in the data set with RAW264.7 [4], the pIC50 was 4.89 and the IC50 was 12.9 µM.
In the case of `O=C(/C=C/c1ccc(O)cc1)c1ccco1`, in the data set on RAW264.7 [4], the pIC50 is 4.60 and the IC50 is 25.1 µM.
Consider `Cc1cc(C(=O)/C=C/c2ccccc2OCC(=O)O)c(C)o1`, for which the pIC50 in the data set on RAW264.7 [4] is at most 4.30.
Still for that read-out and setting: as for `O=C(/C=C/c1ccc(O)cc1)c1cccs1`, the figure is 4.33.
Take `Cc1ccc(C(=O)/C=C/c2ccccc2Cl)o1`: in the data set with RAW264.7 [4], the pIC50 was 4.77 and the IC50 was 17 µM.
In the case of `Cc1ccc(C(=O)/C=C/c2ccc(Cl)cc2)o1`, in the data set on RAW264.7 [4], the pIC50 is 4.94 and the IC50 was 11.5 µM.
Take `O=C(/C=C/c1cccc(O)c1)c1ccccn1`: the pIC50 with RAW264.7 [4] was 4.31.
As to `Cc1ccc(C(=O)/C=C/c2ccco2)o1`, the Activity result with RAW264.7 [1], in the data set on RAW264.7 [2] and in the data set with RAW264.7 [3] was “Non-toxic” in each case. Also, the pIC50 in the data set on RAW264.7 [4] was 4.67. In the data set with RAW264.7 [4], the IC50 is 21.4 µM.
As to `COc1ccc(OC)c(/C=C/C(=O)c2ccc(Cl)s2)c1`, in the data set on RAW264.7 [4], the pIC50 was 4.58.
As for `O=C(/C=C/c1ccccc1O)c1ccccn1`, the pIC50 with RAW264.7 [4] is 4.52.
Take `Cc1ccc(C(=O)/C=C/c2ccc([N+](=O)[O-])cc2)o1`: in the data set on RAW264.7 [4], the pIC50 was 4.84 and the IC50 is 14.5 µM.
On the same counts, the results for `O=C(/C=C/c1ccccc1O)c1ccco1` are 4.71 and 19.5 µM.
As to `O=C(/C=C/c1ccc(O)cc1)c1ccc(Cl)s1`, the pIC50 with RAW264.7 [4] was at most 4.30.
Still for that read-out and setting: as for `COc1ccc(OC)c(/C=C/C(=O)c2cccs2)c1`, the figure is 4.41.
Regarding `O=C(/C=C/c1cccc(O)c1)c1ccncc1`, in the data set on RAW264.7 [4], the pIC50 is at most 4.30.
For `COc1cc(O)cc(O)c1C(=O)/C=C/c1ccccc1` [CARDAMOMIN], in the data set on RAW264.7 [4], the pIC50 is 4.94.
Regarding `O=C(/C=C/c1ccccc1O)c1ccncc1`, in the data set on RAW264.7 [4], the pIC50 is 4.50.

What is called pIC50 is −log10 of the IC50, conventionally taken in molar units.
